In paper PMC5908784, “Extracellular loops 2 and 3 of the calcitonin receptor selectively modify agonist binding and efficacy” (Biochemical Pharmacology, 2018):
Changes are numbered by the printed parent chain. Where a SMILES comes first, the peptide text is derived from it. Bridges are numbered along the chain shown (N, C = ends).

Legend:
Assay in all cases: ERK1/2 phosphorylation
Assay type in all cases: cell-based
hCTR I279A = target: T1, hCTR I279A (Homo sapiens, UniProt P30988, I279A); conditions: CV1-FlpIn cells, mean ± S.E.M.; for Emax: pERK maximal response
T1 construct: expressed in transfected cells
T1 sequence (P30988 25-474 I279A): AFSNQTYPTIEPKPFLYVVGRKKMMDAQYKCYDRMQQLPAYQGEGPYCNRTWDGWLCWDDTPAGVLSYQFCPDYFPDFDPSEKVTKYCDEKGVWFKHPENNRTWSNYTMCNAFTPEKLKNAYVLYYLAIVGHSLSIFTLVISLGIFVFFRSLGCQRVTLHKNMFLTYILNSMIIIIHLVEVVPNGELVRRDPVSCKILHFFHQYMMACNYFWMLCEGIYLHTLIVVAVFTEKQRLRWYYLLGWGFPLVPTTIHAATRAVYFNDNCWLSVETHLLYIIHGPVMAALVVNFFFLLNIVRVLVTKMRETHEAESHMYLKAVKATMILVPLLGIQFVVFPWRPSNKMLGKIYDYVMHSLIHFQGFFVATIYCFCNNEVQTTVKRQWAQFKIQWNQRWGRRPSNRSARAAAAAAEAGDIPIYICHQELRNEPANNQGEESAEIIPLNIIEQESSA
Protocol: (§1) Cells (2.5 × 10^4 cells/well) were seeded into 96-well culture plates and incubated overnight. […] Data were normalized to the maximal response elicited by 10% FBS determined at 6 min.
(§2) Data were corrected for radioligand occupancy using the Cheng-Prusoff equation in Prism; as such data are reported as pKi. Emax and EC50 were estimated from concentration-response curves using with a 3-parameter logistic equation in Prism (v7). These values are a composite of functional affinity, efficacy and stimulus response coupling. […] Significance was accepted at P < 0.05.

hCTR T295A = target: T2, hCTR T295A (Homo sapiens, UniProt P30988, T295A); conditions: CV1-FlpIn cells, mean ± S.E.M.; for Emax: pERK maximal response; for EC50: pERK, three-parameter logistic fit
T2 construct: c-Myc (N); expressed in transfected cells
T2 sequence (P30988 25-474 T295A): T1 sequence (P30988 25-474 I279A) with A255I, T271A
Protocol: as §1, §2

hCTR N286A = target: T3, hCTR N286A (Homo sapiens, UniProt P30988, N286A); conditions: CV1-FlpIn cells, mean ± S.E.M.; for Emax: pERK maximal response; for EC50: pERK, three-parameter logistic fit
T3 construct: c-Myc (N); expressed in transfected cells
T3 sequence (P30988 25-474 N286A): T1 sequence (P30988 25-474 I279A) with A255I, N262A
Protocol: as §1, §2

hCTR Y374A = target: T4, hCTR Y374A (Homo sapiens, UniProt P30988, Y374A); conditions: CV1-FlpIn cells, mean ± S.E.M.; for Emax: pERK maximal response; for EC50: pERK, three-parameter logistic fit
T4 construct: c-Myc (N); expressed in transfected cells
T4 sequence (P30988 25-474 Y374A): T1 sequence (P30988 25-474 I279A) with A255I, Y350A
Protocol: as §1, §2

hCTR L298A = target: T5, hCTR L298A (Homo sapiens, UniProt P30988, L298A); conditions: CV1-FlpIn cells, mean ± S.E.M.; for Emax: pERK maximal response; for EC50: pERK, three-parameter logistic fit
T5 construct: c-Myc (N); expressed in transfected cells
T5 sequence (P30988 25-474 L298A): T1 sequence (P30988 25-474 I279A) with A255I, L274A
Protocol: as §1, §2

Row | EC50 (hCTR T295A) | EC50 (hCTR N286A) | EC50 (hCTR Y374A) | EC50 (hCTR L298A) | EC50 (hCTR I279A; pERK, three-parameter logistic fit) | SMILES | Emax (hCTR I279A) | Emax (hCTR T295A) | Emax (hCTR N286A) | Emax (hCTR Y374A) | Emax (hCTR L298A)
1 | – | – | – | – | – | CC[C@H](C)[C@H](NC(=O)[C@H](C)NC(=O)[C@@H](NC(=O)[C@H](CCC(N)=O)NC(=O)[C@@H]1CCCN1C(=O)[C@H](Cc1ccccc1)NC(=O)[C@@H](NC(=O)[C@H](Cc1c[nH]cn1)NC(=O)[C@H](Cc1ccccc1)NC(=O)[C@H](CCCCN)NC(=O)[C@H](CC(N)=O)NC(=O)[C@H](Cc1ccccc1)NC(=O)[C@H](CC(=O)O)NC(=O)[C@H](CCC(N)=O)NC(=O)[C@@H](NC(=O)[C@H](Cc1ccc(O)cc1)NC(=O)[C@@H](NC(=O)CNC(=O)[C@H](CC(C)C)NC(=O)[C@H](CCSC)NC(=O)[C@@H]1CSSC[C@H](N)C(=O)NCC(=O)N[C@@H](CC(N)=O)C(=O)N[C@@H](CC(C)C)C(=O)N[C@@H](CO)C(=O)N[C@@H]([C@@H](C)O)C(=O)N1)[C@@H](C)O)[C@@H](C)O)[C@@H](C)O)[C@@H](C)O)C(=O)NCC(=O)N[C@H](C(=O)NCC(=O)N[C@@H](C)C(=O)N1CCC[C@H]1C(N)=O)C(C)C [hCT] | 143 ± 10% | 48 ± 6% | 52 ± 5% | 94 ± 4% | 84 ± 10%
2 | 20.9 nM | 12.9 nM | 61.7 nM | 75.9 nM | – | CC(C)C[C@H](NC(=O)CNC(=O)[C@H](C)NC(=O)[C@H](CC(C)C)NC(=O)[C@H](CCCNC(=N)N)NC(=O)[C@H](Cc1cnc[nH]1)NC(=O)[C@@H](NC(=O)[C@@H](NC(=O)[C@@H]1CSSC[C@H](NC(=O)[C@H](C)N)C(=O)N[C@@H](CC(=O)O)C(=O)N[C@@H]([C@@H](C)O)C(=O)N[C@@H](C)C(=O)N[C@@H]([C@@H](C)O)C(=O)N1)C(C)C)[C@@H](C)O)C(=O)N[C@@H](CC(C)C)C(=O)N[C@@H](CO)C(=O)N[C@@H](CCCNC(=N)N)C(=O)N[C@@H](CO)C(=O)NCC(=O)NCC(=O)N[C@H](C(=O)N[C@H](C(=O)N[C@@H](CCCCN)C(=O)N[C@@H](CC(N)=O)C(=O)N[C@@H](CC(N)=O)C(=O)N[C@@H](Cc1ccccc1)C(=O)N[C@H](C(=O)N1CCC[C@H]1C(=O)N[C@H](C(=O)N[C@@H](CC(N)=O)C(=O)N[C@H](C(=O)NCC(=O)N[C@@H](CO)C(=O)N[C@@H](CCCCN)C(=O)N[C@@H](C)C(=O)N[C@@H](Cc1ccccc1)C(N)=O)C(C)C)[C@@H](C)O)C(C)C)C(C)C)C(C)C [hαCGRP] | 97 ± 11% | 22 ± 4% | 31 ± 5% | 49 ± 8% | 58 ± 8%
3 | 0.759 nM | 1.2 nM | 2.69 nM | 1.1 nM | 2.19 nM | CSCC[C@H](NC(=O)CNC(=O)[C@H](CO)NC(=O)[C@H](Cc1ccccc1)NC(=O)[C@H](CCCNC(=N)N)NC(=O)[C@H](Cc1c[nH]cn1)NC(=O)[C@H](Cc1ccccc1)NC(=O)[C@H](CC(N)=O)NC(=O)[C@H](CC(N)=O)NC(=O)[C@H](CC(C)C)NC(=O)[C@H](CC(N)=O)NC(=O)[C@H](CCCNC(=N)N)NC(=O)[C@H](Cc1c[nH]c2ccccc12)NC(=O)[C@H](Cc1ccc(O)cc1)NC(=O)[C@H](C)NC(=O)[C@H](CO)NC(=O)[C@H](CC(C)C)NC(=O)[C@@H](NC(=O)[C@@H]1CSSC[C@H](N)C(=O)N[C@@H](CO)C(=O)N[C@@H](CC(N)=O)C(=O)N[C@@H](CC(C)C)C(=O)N[C@@H](CO)C(=O)N[C@@H]([C@@H](C)O)C(=O)N1)C(C)C)C(=O)NCC(=O)N[C@@H](Cc1ccccc1)C(=O)NCC(=O)N1CCC[C@H]1C(=O)N[C@@H](CCC(=O)O)C(=O)N[C@H](C(=O)N1CCC[C@H]1C(N)=O)[C@@H](C)O [pCT] (H-CSNLSTCVLSAYWRNLNNFHRFSGMGFGPETP-NH2; disulfide 1-7) | 122 ± 7% | 50 ± 5% | 46 ± 5% | 105 ± 8% | 73 ± 6%
4 | – | – | – | – | – | CC(C)C[C@H](NC(=O)[C@H](CC(N)=O)NC(=O)[C@H](CC(N)=O)NC(=O)[C@H](CO)NC(=O)[C@H](CO)NC(=O)[C@H](CCCNC(=N)N)NC(=O)[C@@H](NC(=O)[C@H](CC(C)C)NC(=O)[C@H](Cc1ccccc1)NC(=O)[C@H](CC(N)=O)NC(=O)[C@H](C)NC(=O)[C@H](CC(C)C)NC(=O)[C@H](CCCNC(=N)N)NC(=O)[C@H](CCC(N)=O)NC(=O)[C@@H](NC(=O)[C@H](C)NC(=O)[C@@H]1CSSC[C@H](NC(=O)[C@@H](N)CCCCN)C(=O)N[C@@H](CC(N)=O)C(=O)N[C@@H]([C@@H](C)O)C(=O)N[C@@H](C)C(=O)N[C@@H]([C@@H](C)O)C(=O)N1)[C@@H](C)O)C(C)C)C(=O)NCC(=O)N1CCC[C@H]1C(=O)N[C@H](C(=O)N[C@@H](CC(C)C)C(=O)N1CCC[C@H]1C(=O)N1CCC[C@H]1C(=O)N[C@H](C(=O)N[C@@H](CC(N)=O)C(=O)N[C@H](C(=O)NCC(=O)N[C@@H](CO)C(=O)N[C@@H](CC(N)=O)C(=O)N[C@H](C(=O)N[C@@H](Cc1ccc(O)cc1)C(N)=O)[C@@H](C)O)C(C)C)[C@@H](C)O)C(C)C [rAmy] | 88 ± 9% | 28 ± 5% | 41 ± 6% | 61 ± 5% | 82 ± 7%
5 | – | – | – | – | – | CC(C)C[C@H](NC(=O)[C@H](CCCCN)NC(=O)CNC(=O)[C@H](CC(C)C)NC(=O)[C@@H](NC(=O)[C@@H]1CSSC[C@H](N)C(=O)N[C@@H](CO)C(=O)N[C@@H](CC(N)=O)C(=O)N[C@@H](CC(C)C)C(=O)N[C@@H](CO)C(=O)N[C@@H]([C@@H](C)O)C(=O)N1)C(C)C)C(=O)N[C@@H](CO)C(=O)N[C@@H](CCC(N)=O)C(=O)N[C@@H](CCC(=O)O)C(=O)N[C@@H](CC(C)C)C(=O)N[C@@H](Cc1c[nH]cn1)C(=O)N[C@@H](CCCCN)C(=O)N[C@@H](CC(C)C)C(=O)N[C@@H](CCC(N)=O)C(=O)N[C@H](C(=O)N[C@@H](Cc1ccc(O)cc1)C(=O)N1CCC[C@H]1C(=O)N[C@@H](CCCNC(=N)N)C(=O)N[C@H](C(=O)N[C@@H](CC(N)=O)C(=O)N[C@H](C(=O)NCC(=O)N[C@@H](CO)C(=O)NCC(=O)N[C@H](C(=O)N1CCC[C@H]1C(N)=O)[C@@H](C)O)[C@@H](C)O)[C@@H](C)O)[C@@H](C)O [sCT] | 126 ± 5% | 49 ± 4% | 59 ± 5% | 99 ± 5% | 85 ± 6%
